Target: T1, human capsaicin receptor (Homo sapiens, UniProt Q8NER1)
T1 construct: expressed in transfected cells; host or cells: HEK293, stably transfected with pBK-CMV construct
Experiment: Calcium mobilization assay, determination of antagonist activity
Format: cell-based
Conditions: capsaicin at EC50; cells expressing human capsaicin receptor; Example 6
Outline: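 IC50 is the antagonist level giving a 50% drop in the capsaicin (EC50) calcium signal, read by FLIPR in Fluo-3 AM-loaded stable HEK293 lines bearing full-length human receptor. Compounds at 1-5 µM final were preincubated 0.5-6 h, room temperature, dark, in KRH pH 7.4.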

T1 sequence (Q8NER1 whole entry): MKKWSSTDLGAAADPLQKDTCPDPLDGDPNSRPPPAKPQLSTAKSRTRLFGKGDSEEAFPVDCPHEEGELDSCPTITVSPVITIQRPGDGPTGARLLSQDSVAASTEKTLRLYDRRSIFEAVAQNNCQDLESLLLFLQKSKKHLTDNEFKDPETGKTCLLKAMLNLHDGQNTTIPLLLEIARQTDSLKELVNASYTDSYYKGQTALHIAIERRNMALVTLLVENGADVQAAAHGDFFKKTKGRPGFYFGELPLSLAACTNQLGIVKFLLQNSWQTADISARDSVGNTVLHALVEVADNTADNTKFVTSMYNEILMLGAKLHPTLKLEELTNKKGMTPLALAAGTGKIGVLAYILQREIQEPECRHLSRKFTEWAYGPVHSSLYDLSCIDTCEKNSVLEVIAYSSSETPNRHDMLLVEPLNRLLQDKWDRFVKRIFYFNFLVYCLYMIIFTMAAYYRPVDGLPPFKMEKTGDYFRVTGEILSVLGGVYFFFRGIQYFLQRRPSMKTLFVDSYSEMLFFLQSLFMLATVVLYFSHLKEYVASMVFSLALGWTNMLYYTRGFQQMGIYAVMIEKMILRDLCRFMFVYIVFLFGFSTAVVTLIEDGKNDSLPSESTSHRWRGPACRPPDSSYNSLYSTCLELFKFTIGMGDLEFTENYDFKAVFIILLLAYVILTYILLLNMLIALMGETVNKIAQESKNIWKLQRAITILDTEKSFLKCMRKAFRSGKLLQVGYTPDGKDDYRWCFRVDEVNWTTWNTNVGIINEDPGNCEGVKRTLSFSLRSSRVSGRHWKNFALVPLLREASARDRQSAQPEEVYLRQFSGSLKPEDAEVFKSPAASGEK

Compound	IC50 [nM]
Cc1cc(C(=O)N(C)C2CCCCC2)cnc1N1CCN(c2cc(-c3ccc(F)cc3)nc(N3CCCC3C)n2)CC1 (stereo not drawn) [Example 129, N-cyclohexyl-6-{4-[6-(4-fluorophenyl)-2-(2-methylpyrrolidin-1-yl)pyrimidin-4-yl]piperazin-1-yl}-N,5-dimethylnicotinamide]	≤ 1000
Cc1cc(C(=O)N2CCC(c3ccccc3)CC2)cnc1N1CCN(c2cc(-c3ccc(F)cc3)nc(N3CCCC3C)n2)CC1 (stereo not drawn) [Example 130, 4-(4-fluorophenyl)-6-(4-{3-methyl-5-[(4-phenylpiperidin-1-yl)carbonyl]pyridin-2-yl}piperazin-1-yl)-2-(2-methylpyrrolidin-1-yl)pyrimidine]	≤ 1000
Cc1cc(C(=O)N2CCN(C)CC2)cnc1N1CCN(c2cc(-c3ccc(F)cc3)nc(N3CCCC3C)n2)CC1 (stereo not drawn) [Example 131, 4-(4-fluorophenyl)-6-(4-{3-methyl-5-[(4-methylpiperazin-1-yl)carbonyl]pyridin-2-yl}piperazin-1-yl)-2-(2-methylpyrrolidin-1-yl)pyrimidine]	≤ 1000
COCCN1CCN(C(=O)c2cnc(N3CCN(c4cc(-c5ccc(F)cc5)nc(N5CCCC5C)n4)CC3)c(C)c2)CC1 (stereo not drawn) [Example 132, 4-(4-fluorophenyl)-6-[4-(5-{[4-(2-methoxyethyl)piperazin-1-yl]carbonyl}-3-methylpyridin-2-yl)piperazin-1-yl]-2-(2-methylpyrrolidin-1-yl)pyrimidine]	≤ 1000
Cc1cc(C(=O)N2CCN(C3CCCC3)CC2)cnc1N1CCN(c2cc(-c3ccc(F)cc3)nc(N3CCCC3C)n2)CC1 (stereo not drawn) [Example 133, 4-(4-{5-[(4-cyclopentylpiperazin-1-yl)carbonyl]-3-methylpyridin-2-yl}piperazin-1-yl)-6-(4-fluorophenyl)-2-(2-methylpyrrolidin-1-yl)pyrimidine]	≤ 1000
CC(=O)N1CCN(C(=O)c2cnc(N3CCN(c4cc(-c5ccc(F)cc5)nc(N5CCCC5C)n4)CC3)c(C)c2)CC1 (stereo not drawn) [Example 134, 4-(4-{5-[(4-acetylpiperazin-1-yl)carbonyl]-3-methylpyridin-2-yl}piperazin-1-yl)-6-(4-fluorophenyl)-2-(2-methylpyrrolidin-1-yl)pyrimidine]	≤ 1000
Cc1cc(C(=O)N2CCCC2C)cnc1N1CCN(c2cc(-c3ccc(F)cc3)nc(N3CCCC3C)n2)CC1 (stereo not drawn) [Example 135, 4-(4-fluorophenyl)-6-(4-{3-methyl-5-[(2-methylpyrrolidin-1-yl)carbonyl]pyridin-2-yl}piperazin-1-yl)-2-(2-methylpyrrolidin-1-yl)pyrimidine]	≤ 1000
Cc1cc(C(=O)N(C)CCN(C)C)cnc1N1CCN(c2cc(-c3ccc(F)cc3)nc(N3CCCC3C)n2)CC1 (stereo not drawn) [Example 136, N-[2-(dimethylamino)ethyl]-6-{4-[6-(4-fluorophenyl)-2-(2-methylpyrrolidin-1-yl)pyrimidin-4-yl]piperazin-1-yl}-N,5-dimethylnicotinamide]	≤ 1000
Cc1cc(C(=O)N(C)CCCN(C)C)cnc1N1CCN(c2cc(-c3ccc(F)cc3)nc(N3CCCC3C)n2)CC1 (stereo not drawn) [Example 137, N-[3-(dimethylamino)propyl]-6-{4-[6-(4-fluorophenyl)-2-(2-methylpyrrolidin-1-yl)pyrimidin-4-yl]piperazin-1-yl}-N,5-dimethylnicotinamide]	≤ 1000
Cc1cc(C(=O)N(C)C2CCN(C)C2)cnc1N1CCN(c2cc(-c3ccc(F)cc3)nc(N3CCCC3C)n2)CC1 (stereo not drawn) [Example 138, 6-{4-[6-(4-fluorophenyl)-2-(2-methylpyrrolidin-1-yl)pyrimidin-4-yl]piperazin-1-yl}-N,5-dimethyl-N-(1-methylpyrrolidin-3-yl)nicotinamide]	≤ 1000
Cc1cc(C(=O)N2CCC(N(C)C)C2)cnc1N1CCN(c2cc(-c3ccc(F)cc3)nc(N3CCCC3C)n2)CC1 (stereo not drawn) [Example 139, l-[(6-{4-[6-(4-fluorophenyl)-2-(2-methylpyrrolidin-1-yl)pyrimidin-4-yl]piperazin-1-yl}-5-methylpyridin-3-yl)carbonyl]-N,N-dimethylpyrrolidin-3 amine]	≤ 1000
CC(=O)NC1CCN(C(=O)c2cnc(N3CCN(c4cc(-c5ccc(F)cc5)nc(N5CCCC5C)n4)CC3)c(C)c2)C1 (stereo not drawn) [Example 140, N-{l-[(6-{4-[6-(4-fluorophenyl)-2-(2-methylpyrrolidin-1-yl)pyrimidin-4-yl]piperazin-1-yl}-5-methylpyridin-3-yl)carbonyl]pyrrolidin-3-yl}acetamide]	≤ 1000
COC1CCN(C(=O)c2cnc(N3CCN(c4cc(-c5ccc(F)cc5)nc(N5CCCC5C)n4)CC3)c(C)c2)CC1 (stereo not drawn) [Example 141, 4-(4-fluorophenyl)-6-(4-{5-[(4-methoxypiperidin-1-yl)carbonyl]-3-methylpyridin-2-yl}piperazin-1-yl)-2-(2-methylpyrrolidin-1-yl)pyrimidine]	≤ 1000
Cc1cc(C(=O)N2CCC(F)(F)CC2)cnc1N1CCN(c2cc(-c3ccc(F)cc3)nc(N3CCCC3C)n2)CC1 (stereo not drawn) [Example 142, 4-(4-{5-[(4,4-difluoropiperidin-1-yl)carbonyl]-3-methylpyridin-2-yl}piperazin-1-yl)-6-(4-fluorophenyl)-2-(2-methylpyrrolidin-1-yl)pyrimidine]	≤ 1000
C[C@@H]1CN(c2ncc(C(N)=O)cc2Cl)CCN1c1cc(-c2ccc(F)cc2)nc(N2CCOC[C@H]2C)n1 [Example 143, 5-Chloro-6-{4-[6-(4-fluoro-phenyl)-2-(3-(R)-methyl-morpholin-4-yl)-pyrimidin-4-yl]-3-(R)-methyl-piperazin-1-yl}-nicotinamide]	≤ 1000
Cc1ccc(C(=O)O)nc1N1CCN(c2cc(-c3ccc(F)cc3)nc(N3CCC[C@H]3C)n2)[C@H](C)C1 [Example 144, 6-{4-[6-(4-Fluoro-phenyl)-2-(2-(R)-methyl-pyrrolidin-l-yl)-pyrimidin-4-yl]-3-(R)-methyl-piperazin-1-yl}-5-methyl-pyridine-2-carboxylic acid]	≤ 1000
Cc1ccc(C(N)=O)nc1N1CCN(c2cc(-c3ccc(F)cc3)nc(N3CCC[C@H]3C)n2)[C@H](C)C1 [Example 145, 6-{4-[6-(4-Fluoro-phenyl)-2-(2-(R)-methyl-pyrrolidin-1-yl)-pyrimidin-4-yl]-3-(R)-methyl-piperazin-1-yl}-5-methyl-pyridine-2-carboxylic acid amide]	≤ 1000
C[C@@H]1CN(c2ncc(CO)cc2Cl)CCN1c1cc(-c2ccc(F)c(Cl)c2)nc(N2CCC[C@H]2C)n1 [Example 146, (5-Chloro-6-{4-[6-(3-chloro-4-fluoro-phenyl)-2-(2-(R)-methyl-pyrrolidin-1-yl)-pyrimidin-4-yl]-3-(R)-methyl-piperazin-1-yl}-pyridin-3-yl)-methanol]	≤ 1000
CC1CCCN1c1nc(-c2ccc(F)cc2)cc(N2CCN(c3ncc(C(C)(C)O)cc3Cl)CC2)n1 (stereo not drawn) [Example 147, 2-(5-Chloro-6-{4-[6-(4-fluoro-phenyl)-2-(2-methyl-pyrrolidin-1-yl)-pyrimidin-4-yl]-piperazin-1-yl}-pyridin-3-yl)-propan-2-ol]	≤ 1000
CC(O)c1cnc(N2CCN(c3cc(-c4ccc(F)cc4)nc(N4CCCC4C)n3)CC2)c(Cl)c1 (stereo not drawn) [Example 148, l-(5-Chloro-6-{4-[6-(4-fluoro-phenyl)-2-(2-methyl-pyrrolidin-1-yl)-pyrimidin-4-yl]-piperazin-1-yl}-pyridin-3-yl)-ethanol]	≤ 1000
C[C@@H]1CN(c2ncc(C(=O)NCCO)cc2Cl)CCN1c1cc(-c2ccc(F)c(Cl)c2)nc(N2CCC[C@H]2C)n1 [Example 149, 5-Chloro-6-{4-[6-(3-chloro-4-fluoro-phenyl)-2-(2-(R)-methyl-pyrrolidin-1-yl)-pyrimidin-4-yl]-3-(R)-methyl-piperazin-1-yl}-N-(2-hydroxy-ethyl)-nicotinamide]	≤ 1000
Cc1cc(C(=O)O)cnc1N1CCN(c2cc(-c3ccc(F)cc3)nc(N3CCOC[C@H]3C)n2)[C@H](C)C1 [Example 150, 6-{4-[6-(4-Fluoro-phenyl)-2-(3-(R)-methyl-morpholin-4-yl)-pyrimidin-4-yl]-3-(R)-methyl-piperazin-1-yl}-5-methyl-nicotinic acid]	≤ 1000
Cc1cc(C(=O)O)cnc1N1CCN(c2cc(-c3ccc(F)cc3)nc(N3CCC[C@H]3CO)n2)[C@H](C)C1 [Example 151, 6-{4-[6-(4-Fluoro-phenyl)-2-(2-(S)-hydroxymethyl-pyrrolidin-l-yl)-pyrimidin-4-yl]-3-(R)-methyl-piperazin-1-yl}-5-methyl-nicotinic acid]	≤ 1000
CC1CCCN1c1nc(-c2ccc(F)cc2)cc(N2CCN(c3ncc(CC(N)=O)cc3Cl)CC2)n1 (stereo not drawn) [Example 152, 2-(5-Chloro-6-{4-[6-(4-fluoro-phenyl)-2-(2-methyl-pyrrolidin-1-yl)-pyrimidin-4-yl]-piperazin-1-yl}-pyridin-3-yl)-acetamide]	≤ 1000
Cc1cc(C(=O)O)cnc1N1CCN(c2cc(-c3ccc(F)cc3)nc(N(C)C(C)C)n2)[C@H](C)C1 [Example 153, 6-{4-[6-(4-Fluoro-phenyl)-2-(isopropyl-methyl-amino)-pyrimidin-4-yl]-3-(R)-methyl-piperazin-1-yl}-5-methyl-nicotinic acid]	≤ 1000
Cc1cc(C(=O)O)cnc1N1CCN(c2cc(-c3ccc(F)c(Cl)c3)nc(N3CCC[C@H]3C)n2)[C@H](C)C1 [Example 154, 6-{4-[6-(3-Chloro-4-fluoro-phenyl)-2-(2-(R)-methyl-pyrrolidin-1-yl)-pyrimidin-4-yl]-3-(R)-methyl-piperazin-1-yl}-5-methyl-nicotinic acid]	≤ 1000
C[C@@H]1CN(c2ncc(C(=O)N3CCC[C@H]3CO)cc2Cl)CCN1c1cc(-c2ccc(F)cc2)nc(N2CCC[C@H]2CO)n1 [Example 155, (5-Chloro-6-{4-[6-(4-fluoro-phenyl)-2-(2-(S)-hydroxymethyl-pyrrolidin-1-yl)-pyrimidin-4-yl]-3-(R)-methyl-piperazin-1-yl}-pyridin-3-yl)-(2-(S)-hydroxymethyl-pyrrolidin-1-yl)-methanone]	≤ 1000

— patent publication US8334382B2, “Substituted biaryl piperazinyl-pyridine analogues” (Neurogen Corporation, priority 2004, dated 2012)
